# Assay results: patent US8921360B2, “Heterobicycle-substituted azolyl benzene fungicides” (priority 2009, dated 2014)
# Key:
# Type in all cases: in vivo
# [1] = tested on: Puccinia recondita f sp. tritici; test: Test B: wheat leaf rust, preventive spray on wheat seedlings; conditions: 200 ppm; wheat seedlings sprayed to run-off, inoculated next day, rated after 24 h + 7 days
# Source text: General protocol for preparing test suspensions for Tests A-G: the test compounds were first dissolved in acetone in an amount equal to 11% of the final volume and then suspended at the desired concentration (in ppm) in acetone and purified water (50/50 mix by volume) containing 250 ppm of the surfactant Trem® 014 (polyhydric alcohol esters). The resulting test suspensions were then used in Tests A-G. Spraying a 200 ppm test suspension to the point of run-off on the test plants was the equivalent of a rate of 800 g/ha. The test suspension was sprayed to the point of run-off on wheat seedlings. The following day the seedlings were inoculated with a spore suspension of Puccinia recondita f sp. tritici (the causal agent of wheat leaf rust) and incubated in a saturated atmosphere at 20° C. for 24 h, and then moved to a growth chamber at 20° C. for 7 days, after which time disease ratings were visually made. Results for Tests A-G are given in Table A. In the Table, a rating of 100 indicates 100% disease control and a rating of 0 indicates no disease control (relative to the controls). A dash (-) indicates no test results. All results are for 200 ppm except where followed by an “*”, which indicates 40 ppm.
# [2] = tested on: Erysiphe graminis f. sp. tritici; test: Test A: wheat powdery mildew, preventive spray on wheat seedlings; conditions: 200 ppm; wheat seedlings sprayed to run-off, inoculated next day, rated after 8 days; 100 = 100% disease control, 0 = no control
# Source text: General protocol for preparing test suspensions for Tests A-G: the test compounds were first dissolved in acetone in an amount equal to 11% of the final volume and then suspended at the desired concentration (in ppm) in acetone and purified water (50/50 mix by volume) containing 250 ppm of the surfactant Trem® 014 (polyhydric alcohol esters). The resulting test suspensions were then used in Tests A-G. Spraying a 200 ppm test suspension to the point of run-off on the test plants was the equivalent of a rate of 800 g/ha. The test suspension was sprayed to the point of run-off on wheat seedlings. The following day the seedlings were inoculated with a spore dust of Erysiphe graminis f. sp. tritici, (the causal agent of wheat powdery mildew) and incubated in a growth chamber at 20° C. for 8 days, after which time disease ratings were visually made. Results for Tests A-G are given in Table A. In the Table, a rating of 100 indicates 100% disease control and a rating of 0 indicates no disease control (relative to the controls). A dash (-) indicates no test results. All results are for 200 ppm except where followed by an “*”, which indicates 40 ppm.
# Alternaria solani = test: Test G: tomato early blight, preventive spray on tomato seedlings; conditions: 200 ppm; tomato seedlings sprayed to run-off, inoculated next day, rated after 48 h + 5 days
# Source text: General protocol for preparing test suspensions for Tests A-G: the test compounds were first dissolved in acetone in an amount equal to 11% of the final volume and then suspended at the desired concentration (in ppm) in acetone and purified water (50/50 mix by volume) containing 250 ppm of the surfactant Trem® 014 (polyhydric alcohol esters). The resulting test suspensions were then used in Tests A-G. Spraying a 200 ppm test suspension to the point of run-off on the test plants was the equivalent of a rate of 800 g/ha. The test suspension was sprayed to the point of run-off on tomato seedlings. The following day the seedlings were inoculated with a spore suspension of Alternaria solani (the causal agent of tomato early blight) and incubated in a saturated atmosphere at 27° C. for 48 h, and then moved to a growth chamber at 24° C. for 5 days, after which time disease ratings were visually made. Results for Tests A-G are given in Table A. In the Table, a rating of 100 indicates 100% disease control and a rating of 0 indicates no disease control (relative to the controls). A dash (-) indicates no test results. All results are for 200 ppm except where followed by an “*”, which indicates 40 ppm.
# Septoria tritici = test: Test E: wheat leaf blotch, preventive spray on wheat seedlings; conditions: 200 ppm; wheat seedlings sprayed to run-off, inoculated next day, rated after 48 h + 19 days
# Source text: General protocol for preparing test suspensions for Tests A-G: the test compounds were first dissolved in acetone in an amount equal to 11% of the final volume and then suspended at the desired concentration (in ppm) in acetone and purified water (50/50 mix by volume) containing 250 ppm of the surfactant Trem® 014 (polyhydric alcohol esters). The resulting test suspensions were then used in Tests A-G. Spraying a 200 ppm test suspension to the point of run-off on the test plants was the equivalent of a rate of 800 g/ha. The test suspension was sprayed to the point of run-off on wheat seedlings. The following day the seedlings were inoculated with a spore suspension of Septoria tritici (the causal agent of wheat leaf blotch) and incubated in a saturated atmosphere at 24° C. for 48 h, and then moved to a growth chamber at 20° C. for 19 days, after which time disease ratings were visually made. Results for Tests A-G are given in Table A. In the Table, a rating of 100 indicates 100% disease control and a rating of 0 indicates no disease control (relative to the controls). A dash (-) indicates no test results. All results are for 200 ppm except where followed by an “*”, which indicates 40 ppm.
# Botrytis cinerea = test: Test F: tomato botrytis, preventive spray on tomato seedlings; conditions: 200 ppm; tomato seedlings sprayed to run-off, inoculated next day, rated after 48 h + 3 days
# Source text: General protocol for preparing test suspensions for Tests A-G: the test compounds were first dissolved in acetone in an amount equal to 11% of the final volume and then suspended at the desired concentration (in ppm) in acetone and purified water (50/50 mix by volume) containing 250 ppm of the surfactant Trem® 014 (polyhydric alcohol esters). The resulting test suspensions were then used in Tests A-G. Spraying a 200 ppm test suspension to the point of run-off on the test plants was the equivalent of a rate of 800 g/ha. The test suspension was sprayed to the point of run-off on tomato seedlings. The following day the seedlings were inoculated with a spore suspension of Botrytis cinerea (the causal agent of tomato botrytis) and incubated in saturated atmosphere at 20° C. for 48 h, and then moved to a growth chamber at 27° C. for 3 additional days, after which time disease ratings were visually made. Results for Tests A-G are given in Table A. In the Table, a rating of 100 indicates 100% disease control and a rating of 0 indicates no disease control (relative to the controls). A dash (-) indicates no test results. All results are for 200 ppm except where followed by an “*”, which indicates 40 ppm.
# Septoria nodorum = test: Test D: wheat glume blotch, preventive spray on wheat seedlings; conditions: 200 ppm; wheat seedlings sprayed to run-off, inoculated next day, rated after 48 h + 7 days
# Source text: General protocol for preparing test suspensions for Tests A-G: the test compounds were first dissolved in acetone in an amount equal to 11% of the final volume and then suspended at the desired concentration (in ppm) in acetone and purified water (50/50 mix by volume) containing 250 ppm of the surfactant Trem® 014 (polyhydric alcohol esters). The resulting test suspensions were then used in Tests A-G. Spraying a 200 ppm test suspension to the point of run-off on the test plants was the equivalent of a rate of 800 g/ha. The test suspension was sprayed to the point of run-off on wheat seedlings. The following day the seedlings were inoculated with a spore suspension of Septoria nodorum (the causal agent of wheat glume blotch) and incubated in a saturated atmosphere at 20° C. for 48 h, and then moved to a growth chamber at 20° C. for 7 days, after which time disease ratings were visually made. Results for Tests A-G are given in Table A. In the Table, a rating of 100 indicates 100% disease control and a rating of 0 indicates no disease control (relative to the controls). A dash (-) indicates no test results. All results are for 200 ppm except where followed by an “*”, which indicates 40 ppm.
# [3] = tested on: Puccinia recondita f. sp. tritici; test: Test C: wheat leaf rust, spray the day after inoculation of wheat seedlings; conditions: 200 ppm; wheat seedlings inoculated, sprayed the following day, rated after 5 days;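 further: Curative spray on infected wheat seedlings with visual rating 5 days later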
# Source text: General protocol for preparing test suspensions for Tests A-G: the test compounds were first dissolved in acetone in an amount equal to 11% of the final volume and then suspended at the desired concentration (in ppm) in acetone and purified water (50/50 mix by volume) containing 250 ppm of the surfactant Trem® 014 (polyhydric alcohol esters). The resulting test suspensions were then used in Tests A-G. Spraying a 200 ppm test suspension to the point of run-off on the test plants was the equivalent of a rate of 800 g/ha. Wheat seedlings were inoculated with a spore suspension of Puccinia recondita f. sp. tritici (the causal agent of wheat leaf rust) and incubated in a saturated atmosphere at 20° C. for 24 h. The following day, the test suspension was sprayed to the point of run-off on the wheat seedlings and then moved to a growth chamber at 20° C. for 5 days, after which time disease ratings were visually made. Results for Tests A-G are given in Table A. In the Table, a rating of 100 indicates 100% disease control and a rating of 0 indicates no disease control (relative to the controls). A dash (-) indicates no test results. All results are for 200 ppm except where followed by an “*”, which indicates 40 ppm.
SMILES,Percentage Disease Control Test B [1] [%],Percentage Disease Control Test A [2] [%],Percentage Disease Control Test G (Alternaria solani) [%],Percentage Disease Control Test E (Septoria tritici) [%],Percentage Disease Control Test F (Botrytis cinerea) [%],Percentage Disease Control Test D (Septoria nodorum) [%],Percentage Disease Control Test C [3] [%]
COC(=O)NCc1cc(-c2ccn(-c3ccc4c(c3)OCCO4)n2)ccc1C [Compound 19],100,100,73,100,99,100,100
COC(=O)NCc1cc(-n2ccc(-c3ccc4c(c3)NC(=O)CO4)n2)ccc1F [Compound 14],54,0,0,44,0,0,0
COC(=O)NCc1cc(-n2ccc(-c3ccc4c(c3)C(F)CCO4)n2)ccc1F (stereo not shown) [Compound 22],100,100,8,94,33,100,100
COC(=O)NCc1cc(-c2ccn(-c3ccc4c(c3)OCCO4)n2)ccc1Br [Compound 17],100,100,93,99,87,100,100
